Patent US20250129104A1, “7H-PYRROLO[2,3-D]PYRIMIDINES AND PREPARATION AND USES THEREOF” (BioSplice Therapeutics, Inc., priority 2021, published 2025)

target: recombinant DYRK1A kinase (Homo sapiens (Human), UniProt Q13627); test: DYRK1A kinase assay (Ser/Thr 18 peptide Z-lyte FRET assay); format: biochemical; settings: DYRK1A kinase activity; 15 μM ATP, 1 h room temperature; method text calls the value IC50
Experimental: Representative compounds were screened using the assay procedure for DYRK1A kinase activity as described below.
Each compound was dissolved in DMSO as a 10 mM stock and used to prepare compound source plates. Serial dilution (1:3, 11-point dose-response curves from 10 μM to 0.00016 μM) and compound transfer was performed using the ECHO 550 (Labcyte, Sunnyvale, CA) into 1536-well black-walled round bottom plates (Corning).
The DYRK1A kinase assay was run using the Ser/Thr 18 peptide Z-lyte assay kit according to manufacturer's instructions (Life Technologies—a Division of Thermo-Fisher). This is a non-radioactive assay using fluorescence resonance energy transfer (FRET) between coumarin and fluorescein to detect kinase activity which is represented as a ratio of coumarin emission/fluorescein emission.
Briefly, recombinant DYRK1A kinase, ATP and Ser/Thr peptide 18 were prepared in 1× Kinase buffer to final concentrations of 0.25 μg/mL, 15 μM, and 4 μM respectively. The mixture was allowed to incubate with the representative compounds for one hour at room temperature. All reactions were performed in duplicate. Unphosphorylated (“0% Control”) and phosphorylated (“100% control”) forms of Ser/Thr 18 served as control reactions. Additionally, an 11-point dose-response curve of Staurosporine (1 uM top) was run to serve as a positive compound control.
After incubation, Development Reagent A was diluted in Development Buffer then added to the reaction and allowed to further incubate for one hour at room temperature. The plate was read at Ex 400 Em […] to detect the coumarin signal and Ex 400 Em 520 to measure the signal (EnVision Multilabel Plate Reader, PerkinElmer).
The Emission ratio (Em) was calculated as a ratio of the coumarin (C) emission signal (at 445 nm)/Fluorescein (F) emission signal (at 520 nm). The percent phosphorylation was then calculated using the following formula: [1−((Em ratio×F100%)−C100%)/((C0%−C100%)+(Em ratio×(F100%−F0%)))]. Dose-response curves were generated, and inhibitory concentration (IC50) values were calculated using non-linear regression curve fit in the Dotmatics' Studies Software (Bishops Stortford, UK).

Compound	EC50 [nM]
CCn1nnc2ccc(-c3c[nH]c4nc(NCC(C)(C)F)ncc34)cc21 [Compound 865, 5-(1-Ethyl-1H-benzo[d][1,2,3]triazol-6-yl)-N-(2-fluoro-2-methylpropyl)-7H-pyrrolo[2,3-d]pyrimidin-2-amine]	7.3
Cc1nc2ccc(-c3c[nH]c4nc(C5CC5)ncc34)nc2n1C(C)C [Compound 676, 5-(2-Cyclopropyl-7H-pyrrolo[2,3-d]pyrimidin-5-yl)-3-isopropyl-2-methyl-3H-imidazo[4,5-b]pyridine]	1.5
COc1nc(N[C@H]2CC[C@@H](OCCO)CC2)nc2[nH]cc(-c3ccn4nccc4c3)c12 [Compound 2213, 2-((cis-4-((4-Methoxy-5-(pyrazolo[1,5-a]pyridin-5-yl)-7H-pyrrolo[2,3-d]pyrimidin-2-yl)amino)cyclohexyl)oxy)ethan-1-ol]	71.9
Cc1nc2cnc(-c3c[nH]c4nc(C5CCC5)ncc34)cc2n1C(C)C [Compound 628, 6-(2-Cyclobutyl-7H-pyrrolo[2,3-d]pyrimidin-5-yl)-1-isopropyl-2-methyl-1H-imidazo[4,5-c]pyridine]	789
CN1CCN(c2ccc(CNc3ncc4c(-c5ccc6ncncc6c5)c[nH]c4n3)cn2)CC1 [Compound 1982, N-((6-(4-Methylpiperazin-1-yl)pyridin-3-yl)methyl)-5-(quinazolin-6-yl)-7H-pyrrolo[2,3-d]pyrimidin-2-amine]	2.9
CN1CCC(Nc2ncc3c(-c4ccc5nccnc5c4)c[nH]c3n2)CC1 [Compound 1932, N-(1-Methylpiperidin-4-yl)-5-(quinoxalin-6-yl)-7H-pyrrolo[2,3-d]pyrimidin-2-amine]	12.5
COC[C@@H](C)Nc1nc(OC)c2c(-c3ccc4nccn4c3)c[nH]c2n1 [Compound 2175, (R)-5-(Imidazo[1,2-a]pyridin-6-yl)-4-methoxy-N-(1-methoxypropan-2-yl)-7H-pyrrolo[2,3-d]pyrimidin-2-amine]	74.9
Cn1nnc2ccc(-c3c[nH]c4nc(N[C@H]5CC[C@@](C)(O)CC5)ncc34)cc21 [Compound 2191, cis-1-Methyl-4-((5-(1-methyl-1H-benzo[d][1,2,3]triazol-6-yl)-7H-pyrrolo[2,3-d]pyrimidin-2-yl)amino)cyclohexan-1-ol]	4.7
CN1CCN(c2ccc(CNc3ncc4c(-c5ccn6ncnc6c5)c[nH]c4n3)cn2)CC1 [Compound 808, 5-([1,2,4]Triazolo[1,5-a]pyridin-7-yl)-N-((6-(4-methylpiperazin-1-yl)pyridin-3-yl)methyl)-7H-pyrrolo[2,3-d]pyrimidin-2-amine]	52.3
COc1nc(NC2CCN(C)CC2)nc2[nH]cc(-c3ccc4nnn(C)c4c3)c12 [Compound 2195, 4-Methoxy-5-(1-methyl-1H-benzo[d][1,2,3]triazol-6-yl)-N-(1-methylpiperidin-4-yl)-7H-pyrrolo[2,3-d]pyrimidin-2-amine]	9.4
COc1nc(NC2CCOCC2)nc2[nH]cc(-c3ccn4nccc4c3)c12 [Compound 2217, 4-Methoxy-5-(pyrazolo[1,5-a]pyridin-5-yl)-N-(tetrahydro-2H-pyran-4-yl)-7H-pyrrolo[2,3-d]pyrimidin-2-amine]	2.2
CCOc1ncc2c(-c3cc(F)c4ncc(C)n4c3)c[nH]c2n1 [Compound 293, 2-Ethoxy-5-(8-fluoro-3-methylimidazo[1,2-a]pyridin-6-yl)-7H-pyrrolo[2,3-d]pyrimidine]	93.6
Fc1cc(-c2c[nH]c3nc(N[C@H]4CC[C@@H](OCC(F)F)CC4)ncc23)cn2ccnc12 [Compound 2181, N-(cis-4-(2,2-Difluoroethoxy)cyclohexyl)-5-(8-fluoroimidazo[1,2-a]pyridin-6-yl)-7H-pyrrolo[2,3-d]pyrimidin-2-amine]	5.1
COc1nc(N[C@H](C)C(F)(F)F)nc2[nH]cc(-c3ccc4nccn4c3)c12 [Compound 2174, (R)-5-(Imidazo[1,2-a]pyridin-6-yl)-4-methoxy-N-(1,1,1-trifluoropropan-2-yl)-7H-pyrrolo[2,3-d]pyrimidin-2-amine]	1.6
CC(C)(F)CNc1ncc2c(-c3ccn4ncc(C5CC5)c4n3)c[nH]c2n1 [Compound 1695, 5-(3-Cyclopropylpyrazolo[1,5-a]pyrimidin-5-yl)-N-(2-fluoro-2-methylpropyl)-7H-pyrrolo[2,3-d]pyrimidin-2-amine]	5.1
Cc1cn2nc(-c3c[nH]c4nc(NC(C)C)ncc34)ccc2n1 [Compound 991, N-Isopropyl-5-(2-methylimidazo[1,2-b]pyridazin-6-yl)-7H-pyrrolo[2,3-d]pyrimidin-2-amine]	25.7
COc1nc(NC2CCC(F)(F)CC2)nc2[nH]cc(-c3cc(F)c4nccn4c3)c12 [Compound 2185, N-(4,4-Difluorocyclohexyl)-5-(8-fluoroimidazo[1,2-a]pyridin-6-yl)-4-methoxy-7H-pyrrolo[2,3-d]pyrimidin-2-amine]	82
COc1ccc(-c2c[nH]c3nc(NCC(C)(C)F)ncc23)cn1 [Compound 6, N-(2-Fluoro-2-methylpropyl)-5-(6-methoxypyridin-3-yl)-7H-pyrrolo[2,3-d]pyrimidin-2-amine]	33.9

The remaining lines, values ahead:

EC50 [nM]	Compound
21.8	COc1nc(NCC(C)(C)F)nc2[nH]cc(-c3ccn4nccc4c3)c12 [Compound 2305, N-(2-Fluoro-2-methylpropyl)-4-methoxy-5-(pyrazolo[1,5-a]pyridin-5-yl)-7H-pyrrolo[2,3-d]pyrimidin-2-amine]
1.4	COc1nc(N[C@@H]2[C@@H]3COC[C@@H]32)nc2[nH]cc(-c3ccc4nnn(C)c4c3)c12 [Compound 3127, N-((1R,5S,6s)-3-Oxabicyclo[3.1.0]hexan-6-yl)-4-methoxy-5-(1-methyl-1H-benzo[d][1,2,3]triazol-6-yl)-7H-pyrrolo[2,3-d]pyrimidin-2-amine]
28.4	[2H]C([2H])([2H])O[C@H]1CC[C@@H](Nc2nc(OC)c3c(-c4ccc5nccn5c4)c[nH]c3n2)CC1 [Compound 2242, 5-(Imidazo[1,2-a]pyridin-6-yl)-4-methoxy-N-(cis-4-(methoxy-d3)cyclohexyl)-7H-pyrrolo[2,3-d]pyrimidin-2-amine]
77.2	COc1nc(NCC(C)(C)F)nc2[nH]cc(-c3cnc4nc(C)n(CC(F)F)c4c3)c12 [Compound 2269, 5-(1-(2,2-Difluoroethyl)-2-methyl-1H-imidazo[4,5-b]pyridin-6-yl)-N-(2-fluoro-2-methylpropyl)-4-methoxy-7H-pyrrolo[2,3-d]pyrimidin-2-amine]
2.3	c1cc2nc(-c3c[nH]c4nc(NC5CCC6(CC5)COC6)ncc34)ccn2n1 [Compound 3435, 5-(Pyrazolo[1,5-a]pyrimidin-5-yl)-N-(2-oxaspiro[3.5]nonan-7-yl)-7H-pyrrolo[2,3-d]pyrimidin-2-amine]
7.4	C[C@]1(O)CC[C@@H](Nc2ncc3c(-c4ccc5nccn5c4)c[nH]c3n2)CC1 [Compound 2235, cis-4-((5-(Imidazo[1,2-a]pyridin-6-yl)-7H-pyrrolo[2,3-d]pyrimidin-2-yl)amino)-1-methylcyclohexan-1-ol]
256	COc1nc(NCC(C)(C)F)nc2[nH]cc(-c3ccc4nc(C)n(CC(F)F)c4n3)c12 [Compound 2276, 5-(3-(2,2-Difluoroethyl)-2-methyl-3H-imidazo[4,5-b]pyridin-5-yl)-N-(2-fluoro-2-methylpropyl)-4-methoxy-7H-pyrrolo[2,3-d]pyrimidin-2-amine]
0.9	COc1nc(NC2[C@H]3COC[C@@H]23)nc2[nH]cc(-c3ccn4nccc4c3)c12 (stereo partly drawn) [Compound 2323, N-((1R,5S,6r)-3-Oxabicyclo[3.1.0]hexan-6-yl)-4-methoxy-5-(pyrazolo[1,5-a]pyridin-5-yl)-7H-pyrrolo[2,3-d]pyrimidin-2-amine]
0.6	COc1nc(N[C@@H]2[C@@H]3COC[C@@H]32)nc2[nH]cc(-c3ccc4nnn(C)c4c3)c12 [Compound 3128, N-((1R,5S,6r)-3-Oxabicyclo[3.1.0]hexan-6-yl)-4-methoxy-5-(1-methyl-1H-benzo[d][1,2,3]triazol-6-yl)-7H-pyrrolo[2,3-d]pyrimidin-2-amine]
4.5	COc1nc(NC2CCC(F)(F)CC2)nc2[nH]cc(-c3ccc4nccnc4c3)c12 [Compound 2230, N-(4,4-Difluorocyclohexyl)-4-methoxy-5-(quinoxalin-6-yl)-7H-pyrrolo[2,3-d]pyrimidin-2-amine]
5.8	FC(F)CO[C@H]1CC[C@@H](Nc2ncc3c(-c4ccn5nccc5n4)c[nH]c3n2)CC1 [Compound 2222, N-(cis-4-(2,2-Difluoroethoxy)cyclohexyl)-5-(pyrazolo[1,5-a]pyrimidin-5-yl)-7H-pyrrolo[2,3-d]pyrimidin-2-amine]
1.3	CCOc1nc(N[C@H]2CC[C@@H](O)CC2)nc2[nH]cc(-c3ccc4nccnc4c3)c12 [Compound 2232, cis-4-((4-Ethoxy-5-(quinoxalin-6-yl)-7H-pyrrolo[2,3-d]pyrimidin-2-yl)amino)cyclohexan-1-ol]
